What was measured:
Type in all cases: ADME
[1] = target: T1, Cytochrome P450 4F3 (Homo sapiens, UniProt Q08477); experiment: Activity of human recombinant CYP4F3B assessed as enzyme-mediated drug metabolism treated with 25 uM vorapaxar after 120 mins by LC-MS/MS analysis in presence of NADPH; details: 2 h
T1 sequence (Q08477 whole entry): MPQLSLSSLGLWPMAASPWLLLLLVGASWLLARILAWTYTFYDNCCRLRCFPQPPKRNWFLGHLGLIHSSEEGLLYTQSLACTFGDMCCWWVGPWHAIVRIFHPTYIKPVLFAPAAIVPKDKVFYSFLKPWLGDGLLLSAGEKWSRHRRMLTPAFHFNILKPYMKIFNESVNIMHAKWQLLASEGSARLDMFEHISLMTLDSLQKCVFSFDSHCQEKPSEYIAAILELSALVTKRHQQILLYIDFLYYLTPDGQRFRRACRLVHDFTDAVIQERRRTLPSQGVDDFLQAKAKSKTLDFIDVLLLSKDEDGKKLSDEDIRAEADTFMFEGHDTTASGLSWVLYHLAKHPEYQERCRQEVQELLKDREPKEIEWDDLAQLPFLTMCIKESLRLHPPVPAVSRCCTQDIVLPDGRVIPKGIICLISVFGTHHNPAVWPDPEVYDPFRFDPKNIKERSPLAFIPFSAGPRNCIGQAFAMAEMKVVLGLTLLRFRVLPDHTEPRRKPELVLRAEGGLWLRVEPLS

[2] = test system: Liver microsome; experiment: Drug metabolism in human liver microsomes assessed as (3R,3aS,4S,4aR,7R,8aR,9aR)-7-amino-4-((E)-2-(5-(3-fluorophenyl)pyridin-2-yl)vinyl)-3-methyldecahydronaphtho[2,3-c]furan-1(3H)-one formation at 10 to 25 uM after 120 mins by LC-MS/MS analysis in presence of quinidine; details: 2 h
[3] = test system: Liver microsome; experiment: Drug metabolism in human liver microsomes assessed as 2-hydroxyethyl (1R,3aR,4aR,6R,8aR,9S,9aS)-9-((E)-2-(5-(3-fluorophenyl)pyridin-2-yl)vinyl)-1-methyl-3-oxododecahydronaphtho[2,3-c]furan-6-ylcarbamate formation at 25 uM after 120 mins by LC-MS/MS analysis in presence of ketoconazole; details: 2 h
[4] = target: CYP3A5 (Homo sapiens, UniProt P20815); experiment: Activity of human recombinant CYP3A5 assessed as enzyme-mediated drug metabolism at 10 uM after 120 mins by LC-MS/MS analysis in presence of NADPH; details: read-out: Compound recovery
CYP3A5, sequence (P20815 whole entry): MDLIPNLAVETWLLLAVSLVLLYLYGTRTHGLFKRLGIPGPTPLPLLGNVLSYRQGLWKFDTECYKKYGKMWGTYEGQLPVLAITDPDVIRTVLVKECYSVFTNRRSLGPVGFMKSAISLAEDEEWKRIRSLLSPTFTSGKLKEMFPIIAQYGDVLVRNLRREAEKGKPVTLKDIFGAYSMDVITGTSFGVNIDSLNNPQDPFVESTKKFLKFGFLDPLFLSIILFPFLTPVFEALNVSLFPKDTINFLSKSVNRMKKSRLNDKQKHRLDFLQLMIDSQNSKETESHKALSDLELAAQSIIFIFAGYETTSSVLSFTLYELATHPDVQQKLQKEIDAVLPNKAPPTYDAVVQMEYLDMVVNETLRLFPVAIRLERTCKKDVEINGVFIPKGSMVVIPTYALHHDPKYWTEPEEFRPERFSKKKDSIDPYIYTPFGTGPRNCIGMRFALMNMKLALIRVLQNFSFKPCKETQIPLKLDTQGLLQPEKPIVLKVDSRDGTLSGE

[5] = target: T2, Cytochrome P450 2B6 (Homo sapiens, UniProt P20813); experiment: Activity of human recombinant CYP2B6 assessed as enzyme-mediated drug metabolism at 10 uM after 120 mins by LC-MS/MS analysis; details: 2 h
T2 sequence (P20813 whole entry): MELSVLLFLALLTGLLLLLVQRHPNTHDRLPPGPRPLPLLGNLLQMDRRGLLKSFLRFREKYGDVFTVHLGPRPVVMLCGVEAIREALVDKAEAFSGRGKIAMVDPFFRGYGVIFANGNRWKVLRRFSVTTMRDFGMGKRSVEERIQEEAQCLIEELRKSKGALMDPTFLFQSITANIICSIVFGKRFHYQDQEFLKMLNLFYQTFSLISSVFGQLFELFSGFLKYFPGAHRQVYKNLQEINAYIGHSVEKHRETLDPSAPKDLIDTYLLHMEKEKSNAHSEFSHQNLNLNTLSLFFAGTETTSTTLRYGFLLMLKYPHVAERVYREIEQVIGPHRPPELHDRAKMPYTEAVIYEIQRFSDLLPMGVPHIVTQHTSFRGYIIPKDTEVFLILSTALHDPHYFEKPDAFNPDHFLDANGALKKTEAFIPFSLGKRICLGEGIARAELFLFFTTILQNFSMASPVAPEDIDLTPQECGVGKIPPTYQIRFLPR

C[C@H]1OC(=O)[C@@H]2C[C@@H]3C[C@H](NC(=O)OCCO)CC[C@H]3[C@H](/C=C/c3ccc(-c4cccc(F)c4)cn3)[C@H]12
Drug metabolism [1]: metabolite_detected

CCOC(=O)N[C@@H]1CC[C@@H]2[C@@H](C1)C[C@H]1C(=O)O[C@H](C)[C@H]1[C@H]2/C=C/c1ccc(-c2cccc(F)c2)cn1 [VORAPAXAR]
Drug metabolism [2]: metabolite_detected
Drug metabolism [3]: metabolite_not_detected
remaining at 2 h, 10 µM [4]: 93.9%

CCOC(=O)N[C@@H]1CC[C@@H]2[C@@H](C1)C[C@H]1C(=O)O[C@H](C)[C@H]1[C@H]2/C=[14CH]/c1ccc(-c2cccc(F)c2)cn1
Drug metabolism [5]: metabolite_not_detected

Reference: ChEMBL document CHEMBL3526033, “Identification of human liver cytochrome P450 enzymes involved in the metabolism of SCH 530348 (Vorapaxar), a potent oral thrombin protease-activated receptor 1 antagonist” (Drug Metab Dispos, 2011)
